Source: patent US20150148405A1, “Expression Construct for a Lin28-Resistant Let-7 Precursor MicroRNA” (THE JOHNS HOPKINS UNIVERSITY, priority 2012, published 2015)
Numbered stars: 1 amine (or outer) side, 2 acyl side, 3 side chain; on linkers, the order of the positions; unused ones are H or OH. Bridge positions count the residues as written; N and C are the ends. Square brackets hold non-standard residues; d marks the D form. Peptide text beside a SMILES is read from it. I, II: the chains in the order shown. Actinocin(9to1) = Cc1c2oc3c(C)ccc(C(=O)[*:1])c3nc-2c(C(=O)[*:2])c(N)c1=O; NMeV = CN[C@H](C(=O)O)C(C)C; Sar = CNCC(=O)O

How the values were obtained:
Assay type in all cases: cell-based, mouse
[1] = tested on: BDNF targets; assay: Immunoblotting for BDNF target proteins with or without Actinomycin-D; conditions: Actinomycin-D 0.5 μg/mL added 10 min before stimulation
Description: […] Bath application of BDNF (100 ng/mL) was for designated periods (5 min-2 hours). The cultures were washed 3 times and harvested on ice with lysis buffer (50 mM Hepes, 150 mM NaCl, 10% Glycerol, 1 mM EDTA, 1% Triton-X-100, 0.2% SDS) plus freshly added protease inhibitor cocktail (Roche) and PMSF. Protein concentration was determined by Bradford Assay. If required, lysates were treated with Lambda Protein Phosphatase according to manufacturer's instructions (New England Biolabs P0753S). Equal amounts of lysate protein were resolved on SDS-PAGE gels, and electrotransferred to PVDF membrane. Membrane was blocked with 5% milk in Tris-buffered saline tween 20 (TBST) and probed with primary antibodies in 5% milk or BSA in TBST: GluR1 (Millipore AB1504), CaMKIIα (Zymed 13-7300), Homer2 (gift of P. Worley), KCC2 (Upstate 07-432), Kv1.1 (NeuroMab 73-007), β-tubulin (U. Iowa DSHB, clone E-7), GAPDH (gift of S. Snyder), GW182 (18033 gift of M. Fritzler or Abcam ab84403), Dcp1a (gift of J. Lykke-Andersen or NeuroMab clone3G4), phospho-ERK ½ (Sigma M 7802), Dicer (NeuroMab clone N167/7), TRBP (Abeam ab72110), Lin28a (Cell Signaling A177), Lin28b (gift of E. Moss or Cell Signaling 5422), Arc (SantaCruz 17839), mCherry (Clontech 632496), GFP (NeuroMab N86/8).

[2] = tested on: hippocampal pyramidal neurons; assay: Live cell imaging of P-body numbers (GFP-Dcp1a); conditions: 15 μM
Description: Dissociated hippocampal cultures were prepared from postnatal day 0 (P0) mice as previously described (Meffert et al., 2003). Knockdown was by lentiviral-mediated delivery of shRNA to cultures at multiplicity of infection of 5-10, 48 hr before imaging or 4-5 days for GW182. Cultures were preincubated 10-20 min and mock- or BDNF-stimulated (100 ng/mL BDNF) in the presence of Actinomycin-D (0.5 μg/mL), unless indicated otherwise.
Confocal images of hippocampal pyramidal neurons were acquired on either a Yokogawa spinning disk (Zeiss) at 37° C. (live cells), or a LSM5 Pascal system (fixed cells). Laser power and exposure time were adjusted to minimize photobleaching and avoid saturation. […]
Dissociated hippocampal cultures were prepared from postnatal day 0 (P0) mice as previously described (Meffert et al., 2003) and were maintained in Neurobasal A medium (Gibco, 10888) with B27 Supplement (Gibco 17504-44). […] For live cell imaging, confocal images of hippocampal pyramidal neurons (excitatory, determined by morphology) in 0.24-0.3 μm Z sections were acquired using a 40×, 1.3 NA, EC Plan Neofluoar (whole cells) or a 100×, 1.4 NA Plan Apochromat oil immersion objective (dendrites) on a Yokogawa spinning disk system (Cell Observer, Carl Zeiss) at 37° C. in Tyrodes buffer (in mM: 119 NaCl, 5 KCl, 2 CaCl2, 0.2 MgCl2, Glucose, 25 Hepes, 0.01 Glycine, pH 7.4). […]

[3] = tested on: cultured neurons; assay: 35S-labelling total protein synthesis; conditions: mock or BDNF 100 ng/mL 2 hours, Actinomycin-D
Description: Cultured neurons were pre-incubated in media containing reduced-serum and Actinomycin-D as previously described, followed by washing and incubation for 10 min with methionine- and cysteine-free DMEM (Mediatech, Inc.), and ^35S labeling in the same DMEM with the addition of ^355-methionine/cysteine (^35S Met/Cys EasyTag Mix, Perkin Elmer) to a final concentration of […]. Mock- or BDNF stimulation was for 2 hours. Cells were washed and lysed with lysis buffer (see immunoblotting). Lysates were centrifuged and collected supernatants subjected to Bradford assay. To assess newly synthesized proteins, 200-500 μg of lysates proteins were precipitated with 10% trichloroacetic acid (TCA) for 1 hour on ice in the presence of 0.5% deoxycholate (DOC) to remove interfering phenol red. After centrifugation, protein pellets were washed with ice-cold 95% ethanol, solubilized in denaturing buffer ([…] Tris pH 8.3, 5 mM EDTA, 0.05% SDS, 6M urea), and subjected to liquid scintillation counting (Econofluor, New England Nuclear, Inc.). ^35S Disintegration per minute (DPM) was used to quantitate protein synthesis after subtraction of background readings.

SMILES | BDNF-induced protein synthesis of BDNF targets [1] | P-body numbers in neuronal soma and dendrites [2] | total protein synthesis (35S incorporation) [3]
Cc1c2oc3c(C)ccc(C(=O)N[C@@H]4C(=O)N[C@H](C(C)C)C(=O)N5CCC[C@H]5C(=O)N(C)CC(=O)N(C)[C@@H](C(C)C)C(=O)O[C@@H]4C)c3nc-2c(C(=O)N[C@@H]2C(=O)N[C@H](C(C)C)C(=O)N3CCC[C@H]3C(=O)N(C)CC(=O)N(C)[C@@H](C(C)C)C(=O)O[C@@H]2C)c(N)c1=O [Actinomycin-D] (I: T[dV]P[Sar][NMeV] / II: T[dV]P[Sar][NMeV]; ester I:1-I:C, II:1-II:C; linker I:N-II:N via Actinocin(9to1)) | does not alter BDNF-induced protein synthesis | – | –
CCn1cc(C(=O)O)c(=O)c2cc(F)c(N3CCNCC3)nc21 [Enoxacin, enoxacin] | – | rapidly and robustly increased P-body numbers | did not alter basal or BDNF-induced total protein synthesis
CCn1cc(C(=O)O)c(=O)c2cc3c(cc21)OCO3 [oxolinic acid] | – | – | does not alter total cellular protein synthesis
